Usually EC50 stands for the concentration giving half of the maximal effect.

The target of assay [1] is T1, human calcitonin receptor (Homo sapiens, UniProt P30988).
T1 construct: expressed in transfected cells; CRE-luciferase reporter
T1 sequence (P30988 25-474): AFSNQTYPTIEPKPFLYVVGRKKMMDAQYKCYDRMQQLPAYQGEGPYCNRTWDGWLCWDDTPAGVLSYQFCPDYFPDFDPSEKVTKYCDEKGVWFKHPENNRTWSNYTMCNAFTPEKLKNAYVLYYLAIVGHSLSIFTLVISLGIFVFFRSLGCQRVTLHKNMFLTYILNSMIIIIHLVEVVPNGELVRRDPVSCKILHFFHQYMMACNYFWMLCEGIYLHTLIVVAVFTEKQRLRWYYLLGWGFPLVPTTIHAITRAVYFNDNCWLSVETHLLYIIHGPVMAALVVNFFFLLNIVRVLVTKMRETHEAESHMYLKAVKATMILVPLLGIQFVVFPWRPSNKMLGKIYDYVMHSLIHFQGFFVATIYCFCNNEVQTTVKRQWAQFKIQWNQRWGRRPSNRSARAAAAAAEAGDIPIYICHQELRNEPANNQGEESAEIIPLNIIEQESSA
Nature of the assay: Assay (II)a functional assay, human calcitonin receptor (CRE luciferase reporter in BHK cells). In kind it is cell-based. An excerpt:
1. Luciferase Assay Outline
Activation of calcitonin and amylin (coexpression of calcitonin receptor and receptor activity modifying proteins (RAMP)) receptors lead to increased intracellular concentrations of cAMP. Consequently, transcription is activated by promoters containing multiple copies of the cAMP response element (CRE). It is thus possible to measure amylin activity by the use of a CRE luciferase reporter gene introduced into BHK cells also expressing calcitonin or amylin receptors.
A BHK570 cell line was stably transfected with the human calcitonin receptor and a CRE-responsive luciferase reporter gene. The cell line was further transfected with RAMP-3, using standard methods. This turns the calcitonin receptor into an amylin 3(a) receptor. Methotrexate, Neomycin, and Hygromycin are selection markers for luciferase, the calcitonin receptor, and RAMP-3, respectively.
To perform activity assays, BHK calcitonin (a) receptor- or amylin 3(a)-receptor/CRE-luc cells were seeded in white 96 well culture plates at a density of about 20.000 cells/well. […] After incubation overnight at 37° C. and 5% CO2, the growth medium was replaced by 50 μl/well assay medium (DMEM (without phenol red), Glutamax™, 10% FBS, and 10 mM Hepes, pH 7.4). Further, 50 μl/well of standard or sample in assay buffer were added. After 3 hours incubation at 37° C. and 5% CO2, the assay medium with standard or sample were removed and replaced by 100 μl/well PBS. Further, 100 μl/well LucLite™ was added. The plates were sealed and incubated at room temperature for 30 minutes. Finally, luminescence was measured on a TopCounter (Packard) in SPC (single photon counting) mode.

Assay [2] concerns the target T2, rat calcitonin (a) receptor (Rattus norvegicus, UniProt P32214).
T2 construct: expressed in transfected cells; host or cells: BHK tk'ts 13 (transient, FuGENE 6)
T2 sequence (P32214 25-479 isoform P32214-2 limits assumed): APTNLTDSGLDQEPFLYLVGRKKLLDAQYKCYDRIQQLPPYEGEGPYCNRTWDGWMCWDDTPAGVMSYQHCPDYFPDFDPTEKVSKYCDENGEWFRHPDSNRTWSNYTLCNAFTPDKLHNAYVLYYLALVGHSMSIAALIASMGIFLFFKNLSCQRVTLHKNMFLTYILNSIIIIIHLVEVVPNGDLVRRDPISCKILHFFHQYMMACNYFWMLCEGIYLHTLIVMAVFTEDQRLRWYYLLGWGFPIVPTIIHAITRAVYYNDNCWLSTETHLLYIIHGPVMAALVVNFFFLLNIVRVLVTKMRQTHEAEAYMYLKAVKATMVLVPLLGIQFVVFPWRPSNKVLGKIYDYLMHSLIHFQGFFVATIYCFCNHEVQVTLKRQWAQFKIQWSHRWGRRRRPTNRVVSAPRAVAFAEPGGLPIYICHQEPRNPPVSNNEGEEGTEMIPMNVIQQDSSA
The experiment in a line: Assay (II)b functional assay, rat calcitonin receptor (cAMP FlashPlate). In kind it is cell-based. The conditions noted are these: Table 11, read-out: CTa receptor rat EC50. The text has this:
Assay (II)b—Rat Calcitonin and Rat Amylin Receptor Assays
Activation of calcitonin and amylin (coexpression of calcitonin receptor and receptor activity modifying proteins (RAMP)) receptors lead to increased intracellular concentrations of cAMP. In order to quantify the cAMP levels in transiently transfected cells the Adenylyl Cyclase Activation FlashPlate® Assay from Perkin Elmer was used. The basic principle of the FlashPlate® Assay is a competition between radioactive and non-radioactive cAMP generated by the cells for a fixed number of binding sites.
Construction of Rat Calcitonin(a)- and Rat Amylin 3(a)-Receptor Cells.
BHK tk'ts 13 cells were transiently transfected with either rat calcitonin (a) receptor or amylin 3 (a) receptor (rat calcitonin(a) receptor+rat RAMP3) using FuGENE® 6 (Roche), according to the manufacturers recommendations.
24 hours after transient transfection the cells (rat calcitonin(a)- or rat amylin 3(a)-receptor cells) were added (100.000 cells/well) to the 96 well FlashPlates® with samples or standard in FlashPlate stimulation buffer with IBMX and incubated for 30 min. Detection mix was created according to manufacturers protocol and scintillation measured after 3 h of incubation on TopCounter™ (Packard).

Where two headings read alike, the source gives them in different places. Starred links: 1 amine or outer side, 2 acyl side, 3 side chain; linkers in the order of their positions; H or OH if unused. Positions of bridges follow the written chain, without caps; N, C: chain ends. Residues, ends and D or L forms follow the SMILES beside them. Groups on a side chain read outwards from the residue. *: point of attachment. C18 diacid = O=C(O)CCCCCCCCCCCCCCCCC(=O)*; γGlu = O=C(O)[C@H](CCC(=O)[*:2])N[*:1]; AEEA = NCCOCCOCC(=O)O

As to `CC[C@H](C)[C@H](NC(=O)[C@@H]1CCCN1C(=O)CNC(=O)[C@H](Cc1ccccc1)NC(=O)[C@H](CC(N)=O)NC(=O)[C@H](CCCCNC(=O)COCCOCCNC(=O)COCCOCCNC(=O)CC[C@H](NC(=O)CCCCCCCCCCCCCCCCC(=O)O)C(=O)O)NC(=O)[C@H](CO)NC(=O)[C@H](CO)NC(=O)[C@H](Cc1c[nH]cn1)NC(=O)[C@H](Cc1c[nH]cn1)NC(=O)[C@H](CC(C)C)NC(=O)[C@H](Cc1ccccc1)NC(=O)[C@H](CCC(=O)O)NC(=O)[C@H](C)NC(=O)[C@H](CC(C)C)NC(=O)[C@H](CCCNC(=N)N)NC(=O)[C@H](CCC(N)=O)NC(=O)[C@@H](NC(=O)[C@H](C)NC(=O)[C@@H]1CSSC[C@H](NC(=O)[C@@H](N)CCCCN)C(=O)N[C@@H](CC(N)=O)C(=O)N[C@@H]([C@@H](C)O)C(=O)N[C@@H](C)C(=O)N[C@@H]([C@@H](C)O)C(=O)N1)[C@@H](C)O)C(=O)N[C@@H](CC(C)C)C(=O)N1CCC[C@H]1C(=O)N1CCC[C@H]1C(=O)N[C@H](C(=O)N[C@@H](CC(N)=O)C(=O)N[C@H](C(=O)NCC(=O)N[C@@H](CO)C(=O)N[C@@H](CCC(=O)O)C(=O)N[C@H](C(=O)N[C@@H](Cc1ccc(O)cc1)C(N)=O)[C@@H](C)O)C(C)C)[C@@H](C)O` [Example 74, N-epsilon21-[2-(2-{2-[2-(2-{2-[(S)-4-Carboxy-4-(17-carboxyheptadecanoylamino)butyrylamino]ethoxy}ethoxy)acetylamino]ethoxy}ethoxy)acetyl]-[Glu14,His17,Lys21,Glu35]-pramlintide] (H-KCNTATCATQRLAEFLHHSSK([AEEA-AEEA-γGlu-C18 diacid])NFGPILPPTNVGSETY-NH2; disulfide 2-7 (inferred); N-terminus and C-terminus assumed), the EC50 in assay [1] (Table 7, human calcitonin (CTa) receptor) is 0.216 nM; in assay [1] (Table 11, human calcitonin receptor, read-out: CTa receptor human EC50), 0.216 nM; in assay [2], 2.06 nM.

These data come from patent publication US8741836B2, “Polypeptides” (Novo Nordisk A/S, priority 2011, dated 2014).
